Where two headings read alike, the source gives them in different places. Marks after values point to notes of the source that are not given here. A value given as a limit tells only on which side of the number the result lay.

A short description of assay [1]: UV titration of cyclodextrin into cortisol (absorbance at 246 nm). It is filed as binding. The following applies: 1:1 cortisol:γ-cyclodextrin complex. The source says: UV-visible spectroscopy was used to monitor the complex formation between cortisol and a library of cyclodextrin derivatives. The UV spectrum of cortisol contains an absorption band having a maximum at 246 nm. The intensity of the UV line at 246 nm decreases upon complexation of cortisol by addition of a cyclodextrin host molecule. The decrease in the absorbance of an aqueous solution of the guest molecule (cortisol) upon addition of a typical host molecule (like a cyclodextrin derivative) is taken as evidence that the guest molecule has moved from the polar aqueous environment to the usually less polar environment of the interior of the host molecule. The methodology is well established in the field of supramolecular chemistry (Tsukube, H. et al. In Comprehensive Supramolecular Chemistry: Physical Methods in Supramolecular Chemistry. Davies J E D, Ripmeester J A, (Eds) Elsevier, Oxford, 1996: Vol 8, pp 425-483).
The association constants for complex formation are determined by performing a titration of cyclodextrin into cortisol and recording the UV spectrum as a function of the cyclodextrin/steroid ratio. The change in absorption of cortisol at 246 nm (Δ A) upon stepwise addition of cyclodextrin is recorded. The best fit line to the data give Ka for the cortisol-cyclodextrin complex (Liu Y, Li, B, You C-C, Wada, T, Inoue Y. J. Org. Chem., 2001, 66, 225-232). […]

Assay [2] can be described thus: Urinary excretion of endogenous cortisol in the guinea pig. It is filed as in vivo. The following applies: iv 5 mg/250 g. On the procedure: In guinea piogs cortisol is endogenously produced, the basal level of which is approximately 120-150 ng/ml in plasma.
A short description of assay [3]: Urinary excretion of exogenous cortisol in the rat. It is filed as in vivo, Lister hooded rats. The method, then: Two groups of four rats (Lister hooded rats, 300-320 g) were administered (intravenously) either […] of cortisol alone (Group I) or cortisol followed after 15 minutes by 6-per-deoxy-6-per-(2,3-dihydroxypropylthio)-γ-cyclodextrin (Org 26276) as a single intravenous dose of 20 mg/kg (Group II). Each rat was placed in a metabolic cage for the collection of urine. Urine samples were collected for the first 5 hours and thereafter for the remainder of 24 hours The collected urine samples were subjected to HPLC-MS (high pressure liquid chromatograpy on a Phenomenex Luna (50×2 mm; […]) column coupled to a PE Sciex API 3000 Mass Spectrometer). The limit of quantitation for cortisol in urine was 2.5 ng/ml and 10 ng/ml in plasma.

Assay [4] in a line: Isothermal titration calorimetry (microcalorimetry) of cortisol complex. It is filed as binding. The following applies: 1:1 cortisol complex, microcalorimetry / ITC. The source says: The interaction between a sequestering agent and cortisol can be analyzed by physical methods such as nuclear magnetic resonance spectroscopy (nmr) (Fielding, L.: Tetrahedron, 56 (34), 6151-6170, 2000) and microcalorimetry (Stoedeman M. and Wadsoe I.: Pure Appl. Chem., 67(7), 1059-68, 1995). These techniques also allow one to establish the selectivity of the binding to cortisol in comparison with the other endogenous steroidal compounds.
The association constants for complex formation are determined by performing a titration of cyclodextrin into cortisol and recording the UV spectrum as a function of the cyclodextrin/steroid ratio. The change in absorption of cortisol at 246 nm (Δ A) upon stepwise addition of cyclodextrin is recorded. The best fit line to the data give Ka for the cortisol-cyclodextrin complex (Liu Y, Li, B, You C-C, Wada, T, Inoue Y. J. Org. Chem., 2001, 66, 225-232). The UV methodology provides a fairly good estimate of the association constant when this constant is below 10^5 M^−1. The results used for the determination of the association constant for the binding of cortisol to γ-cyclodextrin, β-cyclodextrin and to 2 γ-cyclodextrin derivatives are shown in FIG. 1. […] This is because the chromophore in cortisol is relatively weak and instrument signal to noise issues prevented the preparation of sufficiently dilute solutions. […] The high cortisol binding constant for these γ-cyclodextrin derivatives indicates these derivatives to be potentially very active cortisol sequestering agents. An alternative, but more laborious, method for the determination of the cortisol association constant is by isothermal titration calorimetry (see Wiseman et al. […], 131-137), which can be used to determine the high Ka's more accurately.
Background: In ITC the heat of successive injections is recorded.

For assay [5] the following is noted: 1:1 cyclodextrin:cortisol complex in water, reported values; cited from earlier work.

For the compound “6-per-deoxy-6-per-(2,3-dihydroxypropylthio)-γ-cyclodextrin [Org 26276]”, in assay [1] (listed as Example 1), the Ka is >100,000^a M^−1. For the same compound, the “increase of amount of urinary cortisol excreted during 24 hours compared to the control group” value in assay [2] is 3 fold. Moreover, the “enhancement of excretion of cortisol compared to the control group” value in assay [3] (20 mg/kg iv, versus group that received cortisol alone) is “approximately 10 fold”. The “mean cortisol level in the urine” value in assay [3] (iv cortisol followed after 15 minutes by 20 mg/kg iv, urine collected in the first 5 hours) turned out to be 111 ± 78 ng/mL. For `O=C(O)CCSC[C@H]1O[C@@H]2O[C@H]3[C@H](O)[C@@H](O)[C@@H](O[C@H]4[C@H](O)[C@@H](O)[C@@H](O[C@H]5[C@H](O)[C@@H](O)[C@@H](O[C@H]6[C@H](O)[C@@H](O)[C@@H](O[C@H]7[C@H](O)[C@@H](O)[C@@H](O[C@H]8[C@H](O)[C@@H](O)[C@@H](O[C@H]9[C@H](O)[C@@H](O)[C@@H](O[C@H]1[C@H](O)[C@H]2O)O[C@@H]9CSCCC(=O)O)O[C@@H]8CSCCC(=O)O)O[C@@H]7CSCCC(=O)O)O[C@@H]6CSCCC(=O)O)O[C@@H]5CSCCC(=O)O)O[C@@H]4CSCCC(=O)O)O[C@@H]3CSCCC(=O)O` [6-per-deoxy-6-per-(2-carboxyethyl)thio-γ-cyclodextrin], in assay [1], the Ka is on record as ~30,000 M^−1. Further, the “Association Constant (Ka)” value in assay [4] is recorded as ~40,000 M^−1; in assay [4] (listed as Per-6-deoxy-per-6-(2-carboxyethyl)thio-γ-cyclodextrin), 40000* M^−1. As for `O=C(O)c1ccc(SCC2OC3OC4C(CSc5ccc(C(=O)O)cc5)OC(OC5C(CSc6ccc(C(=O)O)cc6)OC(OC6C(CSc7ccc(C(=O)O)cc7)OC(OC7C(CSc8ccc(C(=O)O)cc8)OC(OC8C(CSc9ccc(C(=O)O)cc9)OC(OC9C(CSc%10ccc(C(=O)O)cc%10)OC(OC%10C(CSc%11ccc(C(=O)O)cc%11)OC(OC2C(O)C3O)C(O)C%10O)C(O)C9O)C(O)C8O)C(O)C7O)C(O)C6O)C(O)C5O)C(O)C4O)cc1` (centres unmarked) [6-per-deoxy-6-per-(4-carboxyphenyl)thio-γ-cyclodextrin], in assay [4], the “Association Constant (Ka)” value is “˜80,000^b M^−1”.

With `OC[C@H]1O[C@@H]2O[C@H]3[C@H](O)[C@@H](O)[C@@H](O[C@H]4[C@H](O)[C@@H](O)[C@@H](O[C@H]5[C@H](O)[C@@H](O)[C@@H](O[C@H]6[C@H](O)[C@@H](O)[C@@H](O[C@H]7[C@H](O)[C@@H](O)[C@@H](O[C@H]1[C@H](O)[C@H]2O)O[C@@H]7CO)O[C@@H]6CO)O[C@@H]5CO)O[C@@H]4CO)O[C@@H]3CO` [α-CD], the “Association Constant (Ka)” value in assay [5] is 57 M⁻¹. Turning to `OC[C@H]1O[C@@H]2O[C@H]3[C@H](O)[C@@H](O)[C@@H](O[C@H]4[C@H](O)[C@@H](O)[C@@H](O[C@H]5[C@H](O)[C@@H](O)[C@@H](O[C@H]6[C@H](O)[C@@H](O)[C@@H](O[C@H]7[C@H](O)[C@@H](O)[C@@H](O[C@H]8[C@H](O)[C@@H](O)[C@@H](O[C@H]1[C@H](O)[C@H]2O)O[C@@H]8CO)O[C@@H]7CO)O[C@@H]6CO)O[C@@H]5CO)O[C@@H]4CO)O[C@@H]3CO` [β-CD, β-cyclodextrin], the “Association Constant (Ka)” value in assay [5] was 1720 to 3000 M⁻¹. With `OC[C@H]1O[C@@H]2O[C@H]3[C@H](O)[C@@H](O)[C@@H](O[C@H]4[C@H](O)[C@@H](O)[C@@H](O[C@H]5[C@H](O)[C@@H](O)[C@@H](O[C@H]6[C@H](O)[C@@H](O)[C@@H](O[C@H]7[C@H](O)[C@@H](O)[C@@H](O[C@H]8[C@H](O)[C@@H](O)[C@@H](O[C@H]9[C@H](O)[C@@H](O)[C@@H](O[C@H]1[C@H](O)[C@H]2O)O[C@@H]9CO)O[C@@H]8CO)O[C@@H]7CO)O[C@@H]6CO)O[C@@H]5CO)O[C@@H]4CO)O[C@@H]3CO` [γ-CD, γ-cyclodextrin], in assay [5], the “Association Constant (Ka)” value was 2240 M⁻¹.

Take Hydroxypropyl-β-CD: the “Association Constant (Ka)” value in assay [5] is 900 to 1000 M⁻¹. In the case of Per-2,6-methyl-β-CD, the “Association Constant (Ka)” value in assay [5] is 5910 M⁻¹.

Regarding Per-6-acetyl-β-CD, in assay [5], the “Association Constant (Ka)” value is 3920 M⁻¹.

The record behind these values is patent US20040048830A1, “Use of cortisol-sequestering agents for the treatment of hypercortisolaemia related disorders” (priority 2000, published 2004).
